Experimental data from ChEMBL document CHEMBL1201862, “PubChem BioAssay data set” (2004).
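Following 48 hours of exposure in 96-well plates, responses at five concentrations were used to interpolate endpoints linearly. Here, GI50 denotes the concentration required for 50% inhibition of growth.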 Active and inactive are the calls of the source. No stated cut-off is given here; in the data, active = GI50 up to about 1.1 µM and inactive = higher.

Assays:
Assay in all cases: NCI tumour cell line growth inhibition, 48 h
TK-10 = system: TK-10
SN12C = system: SN12C
Malme-3M = system: Malme-3M
SK-MEL-2 = system: SK-MEL-2
LXFL 529 = system: LXFL 529
SK-MEL-5 = system: SK-MEL-5
HT-29 = system: HT-29
SF-539 = system: SF-539
NCI-H23 = system: NCI-H23
A498 = system: A498
HOP-62 = system: HOP-62
CCRF-CEM = system: CCRF-CEM
A549 = system: A549
LOX IMVI = system: LOX IMVI
HOP-92 = system: HOP-92
OVCAR-5 = system: OVCAR-5

Measured: GI50

CC(C)c1cccc2sc(NC(=O)C(=O)CC(=O)c3ccc(F)cc3)nc12
inactive: TK-10 > 100 µM | SN12C > 100 µM | Malme-3M > 100 µM | SK-MEL-2 > 100 µM | LXFL 529 > 100 µM | SK-MEL-5 > 100 µM | HT-29 > 100 µM | SF-539 > 100 µM | NCI-H23 > 100 µM | A498 > 100 µM | HOP-62 > 100 µM | CCRF-CEM > 100 µM | A549 > 100 µM | LOX IMVI > 100 µM | HOP-92 > 100 µM | OVCAR-5 > 100 µM

CC1=C(C(=O)NCc2ccccc2)C(c2ccc(C3C(C(=O)NCc4ccccc4)=C(C)NC(C)=C3C(=O)NCc3ccccc3)cc2)C(C(=O)NCc2ccccc2)=C(C)N1
inactive: TK-10 20.7 µM | SN12C 6.5 µM | Malme-3M 14.4 µM | SK-MEL-2 18.4 µM | LXFL 529 4.58 µM | SK-MEL-5 16.1 µM | HT-29 5.61 µM | SF-539 2.13 µM | NCI-H23 14.7 µM | A498 17.7 µM | HOP-62 23.2 µM | CCRF-CEM 3.39 µM | A549 24.3 µM | HOP-92 17.8 µM | OVCAR-5 23.7 µM

Cc1cc(N(CCC#N)CCC#N)ccc1/C=C1/N=C(c2ccccc2)N(N)C1=O
inactive: TK-10 74.1 µM | SN12C > 100 µM | Malme-3M > 100 µM | SK-MEL-2 > 100 µM | LXFL 529 > 100 µM | SK-MEL-5 > 100 µM | HT-29 > 100 µM | SF-539 60.8 µM | NCI-H23 56.9 µM | A498 > 100 µM | HOP-62 31.9 µM | CCRF-CEM 61.7 µM | A549 84.1 µM | LOX IMVI 49.3 µM | HOP-92 30 µM | OVCAR-5 > 100 µM

CC(Oc1ccc(OCC2CCCCC2)cc1)C(=O)N(CCO)CCO (centres undefined)
inactive: TK-10 > 100 µM | SN12C > 100 µM | Malme-3M > 100 µM | SK-MEL-2 > 100 µM | LXFL 529 > 100 µM | SK-MEL-5 > 100 µM | HT-29 > 100 µM | SF-539 23.6 µM | NCI-H23 > 100 µM | A498 > 100 µM | CCRF-CEM > 100 µM | A549 > 100 µM | LOX IMVI > 100 µM

CC(=O)c1cc([N+](=O)[O-])ccc1OCC(=O)O
inactive: TK-10 > 100 µM | SN12C > 100 µM | Malme-3M > 100 µM | SK-MEL-2 > 100 µM | LXFL 529 > 100 µM | SK-MEL-5 > 100 µM | HT-29 > 100 µM | SF-539 > 100 µM | NCI-H23 > 100 µM | A498 > 100 µM | HOP-62 > 100 µM | CCRF-CEM > 100 µM | A549 > 100 µM | LOX IMVI > 100 µM | HOP-92 > 100 µM | OVCAR-5 > 100 µM

C=C(C=O)[C@@H]1C2OC(=O)C(=C)[C@@H]2CC(O)[C@@]1(C)CC (some centres undefined)
inactive: TK-10 15.7 µM | SN12C 10.1 µM | Malme-3M 6.21 µM | SK-MEL-2 13.2 µM | LXFL 529 3.08 µM | SK-MEL-5 6.78 µM | HT-29 6.75 µM | SF-539 9.29 µM | NCI-H23 7.23 µM | A498 17.1 µM | HOP-62 50.2 µM | CCRF-CEM 2.08 µM | A549 32.8 µM | LOX IMVI 15.8 µM | HOP-92 2.33 µM | OVCAR-5 17.8 µM

O=C1OC(c2ccccc2)(c2ccccc2)c2ccc3ccc(F)cc3c21
inactive: TK-10 > 100 µM | SN12C > 100 µM | Malme-3M > 100 µM | SK-MEL-2 > 100 µM | LXFL 529 > 100 µM | SK-MEL-5 20 µM | HT-29 13.6 µM | SF-539 > 100 µM | NCI-H23 52.8 µM | A498 > 100 µM | HOP-62 > 100 µM | CCRF-CEM 31.3 µM | A549 19.3 µM | LOX IMVI 60.3 µM | HOP-92 2.66 µM | OVCAR-5 > 100 µM

O=C(O)/C(Cl)=C(\Cl)C(=O)c1ccccc1
inactive: TK-10 > 100 µM | SN12C > 100 µM | Malme-3M > 100 µM | SK-MEL-2 > 100 µM | LXFL 529 > 100 µM | SK-MEL-5 > 100 µM | HT-29 > 100 µM | SF-539 > 100 µM | NCI-H23 > 100 µM | A498 > 100 µM | HOP-62 > 100 µM | CCRF-CEM > 100 µM | A549 > 100 µM | LOX IMVI > 100 µM | HOP-92 > 100 µM | OVCAR-5 > 100 µM

Cc1cc2nc3c(=O)n(C)c(=O)nc-3n(-c3ccc(Cl)cc3)c2cc1C
inactive: TK-10 31.9 µM | SN12C 5.85 µM | Malme-3M 10 µM | SK-MEL-2 11.8 µM | LXFL 529 14 µM | SK-MEL-5 1.72 µM | HT-29 3.51 µM | SF-539 11.2 µM | NCI-H23 3.81 µM | A498 31.1 µM | HOP-62 24.4 µM | CCRF-CEM 13.6 µM | A549 3.52 µM | HOP-92 13.9 µM | OVCAR-5 18.5 µM
